# Assay results reported in PubChem BioAssay AID1745844 (Carcinogenic Potency Database (CPDB), 2022).
# The source made the active and inactive calls. The rule behind the calls is not given here.
# Test system: rodent lifetime carcinogenesis bioassay, tumor incidence TD50
# Assay: chronic cancer bioassays in animals – CPDB, compiled studies (AID 1745844)
structure (smiles),measurement,setting,value
COc1cc(-c2ccc(N)c(OC)c2)ccc1N,carcinogen call,"mouse, strain BALB/cStCrlfC3Hf/Nctr, females, in drinking water, site: Harderian gland, lesion: adenoma, dosed 78 weeks, study length 78 weeks",negative (inactive)
same,carcinogen call,"mouse, strain BALB/cStCrlfC3Hf/Nctr, females, in drinking water, site: Harderian gland, lesion: adenoma, dosed 112 weeks, study length 112 weeks",negative (inactive)
same,carcinogen call,"mouse, strain BALB/cStCrlfC3Hf/Nctr, females, in drinking water, site: Harderian gland, lesion: carcinoma, dosed 78 weeks, study length 78 weeks",negative (inactive)
same,TD50,"mouse, strain BALB/cStCrlfC3Hf/Nctr, males, in drinking water, site: Harderian gland, lesion: adenoma, dosed 78 weeks, study length 78 weeks",3560 mg/kg/day (inactive)
same,carcinogen call,"mouse, strain BALB/cStCrlfC3Hf/Nctr, males, in drinking water, site: Harderian gland, lesion: adenoma, dosed 112 weeks, study length 112 weeks",negative (inactive)
same,TD50,"mouse, strain ICR/Jcl, males, in feed, site: liver, lesion: hepatoma, dosed 65 weeks, study length 65 weeks",73.8 mg/kg/day
same,TD50,"rat, strain Fischer 344, females, in drinking water, site: Zymbal's gland, lesion: adenoma + carcinoma + carcinoma, bilateral, dosed 91 weeks, study length 93 weeks",6.74 mg/kg/day
same,TD50,"rat, strain Fischer 344, females, in drinking water, site: Zymbal's gland, lesion: adenoma, dosed 91 weeks, study length 93 weeks",27.5 mg/kg/day
same,TD50,"rat, strain Fischer 344, females, in drinking water, site: Zymbal's gland, lesion: carcinoma + carcinoma, bilateral, dosed 91 weeks, study length 93 weeks",8.41 mg/kg/day
same,TD50,"rat, strain Fischer 344, females, in drinking water, site: all sites, lesion: mononuclear-cell leukemia, dosed 91 weeks, study length 93 weeks",6.71 mg/kg/day
same,TD50,"rat, strain Fischer 344, females, in drinking water, site: any site (literature study), lesion: several types, types named in the paper, dosed 91 weeks, study length 93 weeks",1.09 mg/kg/day
same,TD50,"rat, strain Fischer 344, females, in drinking water, site: cervix uteri + uterus, lesion: carcinoma + papillary adenoma + adenoma, dosed 91 weeks, study length 93 weeks",14 mg/kg/day
same,TD50,"rat, strain Fischer 344, females, in drinking water, site: cervix uteri + uterus, lesion: papillary adenoma + adenoma, dosed 91 weeks, study length 93 weeks",15.8 mg/kg/day
same,TD50,"rat, strain Fischer 344, females, in drinking water, site: clitoral gland + cervix uteri + colon, descending + liver + mammary gland + palate + pharynx + rectum + skin + tongue + uterus + Zymbal's glan, lesion: adenoma + adenoma, bilateral + carcinoma + carcinoma, bilateral + papillary adenoma + adenocarcinoma + adenomatous polyp + hepatocellu, dosed 91 weeks, study length 93 weeks",1.19 mg/kg/day
same,TD50,"rat, strain Fischer 344, females, in drinking water, site: clitoral gland, lesion: adenoma + adenoma, bilateral + carcinoma + carcinoma, bilateral, dosed 91 weeks, study length 93 weeks",1.6 mg/kg/day
same,TD50,"rat, strain Fischer 344, females, in drinking water, site: clitoral gland, lesion: adenoma + adenoma, bilateral, dosed 91 weeks, study length 93 weeks",3.84 mg/kg/day
same,TD50,"rat, strain Fischer 344, females, in drinking water, site: clitoral gland, lesion: carcinoma + carcinoma, bilateral, dosed 91 weeks, study length 93 weeks",2.62 mg/kg/day
same,TD50,"rat, strain Fischer 344, females, in drinking water, site: colon, descending + rectum, lesion: adenocarcinoma + adenomatous polyp, dosed 91 weeks, study length 93 weeks",44.3 mg/kg/day
same,TD50,"rat, strain Fischer 344, females, in drinking water, site: liver, lesion: hepatocellular adenoma + hepatocellular carcinoma + neoplastic nodule, dosed 91 weeks, study length 93 weeks",33.3 mg/kg/day
same,TD50,"rat, strain Fischer 344, females, in drinking water, site: liver, lesion: hepatocellular carcinoma + neoplastic nodule, dosed 91 weeks, study length 93 weeks",33.3 mg/kg/day
same,TD50,"rat, strain Fischer 344, females, in drinking water, site: mammary gland, lesion: adenocarcinoma + adenoma + fibroadenoma, dosed 91 weeks, study length 93 weeks",3.24 mg/kg/day
same,TD50,"rat, strain Fischer 344, females, in drinking water, site: mammary gland, lesion: adenocarcinoma, dosed 91 weeks, study length 93 weeks",7.7 mg/kg/day
same,TD50,"rat, strain Fischer 344, females, in drinking water, site: mammary gland, lesion: adenoma + fibroadenoma, dosed 91 weeks, study length 93 weeks",6.22 mg/kg/day
same,TD50,"rat, strain Fischer 344, females, in drinking water, site: mammary gland, lesion: fibroadenoma, dosed 91 weeks, study length 93 weeks",7.05 mg/kg/day
same,TD50,"rat, strain Fischer 344, females, in drinking water, site: palate + pharynx + tongue, lesion: squamous-cell carcinoma + squamous-cell papilloma, dosed 91 weeks, study length 93 weeks",13.8 mg/kg/day
same,TD50,"rat, strain Fischer 344, females, in drinking water, site: palate + tongue, lesion: squamous-cell carcinoma, dosed 91 weeks, study length 93 weeks",113 mg/kg/day
same,TD50,"rat, strain Fischer 344, females, in drinking water, site: palate + tongue, lesion: squamous-cell papilloma, dosed 91 weeks, study length 93 weeks",16.6 mg/kg/day
same,TD50,"rat, strain Fischer 344, females, in drinking water, site: palate, lesion: squamous-cell carcinoma + squamous-cell papilloma, dosed 91 weeks, study length 93 weeks",45.3 mg/kg/day
same,TD50,"rat, strain Fischer 344, females, in drinking water, site: palate, lesion: squamous-cell papilloma, dosed 91 weeks, study length 93 weeks",47.8 mg/kg/day
same,TD50,"rat, strain Fischer 344, females, in drinking water, site: pituitary gland, lesion: adenoma + pars distalis adenoma + pars distalis carcinoma, dosed 91 weeks, study length 93 weeks",9.4 mg/kg/day
same,TD50,"rat, strain Fischer 344, females, in drinking water, site: pituitary gland, lesion: adenoma + pars distalis adenoma, dosed 91 weeks, study length 93 weeks",8.84 mg/kg/day
same,TD50,"rat, strain Fischer 344, females, in drinking water, site: skin, lesion: basal-cell adenoma + basal-cell carcinoma, dosed 91 weeks, study length 93 weeks",10.2 mg/kg/day
same,TD50,"rat, strain Fischer 344, females, in drinking water, site: skin, lesion: basal-cell adenoma, dosed 91 weeks, study length 93 weeks",12.3 mg/kg/day
same,TD50,"rat, strain Fischer 344, females, in drinking water, site: tongue, lesion: squamous-cell carcinoma + squamous-cell papilloma, dosed 91 weeks, study length 93 weeks",19.9 mg/kg/day
same,TD50,"rat, strain Fischer 344, females, in drinking water, site: uterus, lesion: endometrial stromal polyp, dosed 91 weeks, study length 93 weeks",11.6 mg/kg/day
same,TD50,"rat, strain Fischer 344, males, in drinking water, site: Zymbal's gland, lesion: adenoma + adenoma, bilateral + carcinoma + carcinoma, bilateral, dosed 88 weeks, study length 92 weeks",3.02 mg/kg/day
same,TD50,"rat, strain Fischer 344, males, in drinking water, site: Zymbal's gland, lesion: adenoma + adenoma, bilateral, dosed 88 weeks, study length 92 weeks",5.84 mg/kg/day
same,TD50,"rat, strain Fischer 344, males, in drinking water, site: Zymbal's gland, lesion: carcinoma + carcinoma, bilateral, dosed 88 weeks, study length 92 weeks",6.71 mg/kg/day
same,TD50,"rat, strain Fischer 344, males, in drinking water, site: adrenal medulla, lesion: pheochromocytoma benign, bilateral + pheochromocytoma, benign, dosed 88 weeks, study length 92 weeks",2.06 mg/kg/day
